According to US4791118A, “Quinolonecarboxylic acid derivatives and their preparation” (Kyorin Pharmaceutical Co., Ltd., priority 1985, dated 1988):
Values after ≈ are worked out from the molar mass of the structure shown.

Key:
[1] = system: Salmonella enteritidis IID 604; assay: microbe, parasite or virus in culture; conditions: Salmonella enterica
S. pneumoniae IID 552 = assay: MIC, aerobic bacteria; assay type: cell-based; conditions: Streptococcus pneumoniae, IID552, Gram +, 10^6 cells/ml
[2] = system: Bacillus subtilis PCI 219; assay: microbe, parasite or virus in culture; conditions: PCI219
[3] = system: B. melaninogenicus GAI 0410; assay: MIC, anaerobic bacteria; conditions: Prevotella intermedia, GAI0410
[4] = system: B. thetaiotaomicron (0661); assay: MIC, anaerobic bacteria; assay type: cell-based; conditions: Bacteroides thetaiotaomicron, Gram -, 10^6 cells/ml
S. aureus Smith = assay: microbe, parasite or virus in culture; conditions: Staphylococcus aureus
P. aeruginosa IFO 12689 = assay: MIC, aerobic bacteria; assay type: cell-based; conditions: Pseudomonas aeruginosa, IFO12689, Gram -, 10^6 cells/ml
[5] = system: Peptostreptococcus anaerobius KYA 27337; assay: MIC, anaerobic bacteria; assay type: cell-based; conditions: KYA27337, Gram +, 10^6 cells/ml
[6] = system: Eubacterium limosum KYA 8486; assay: MIC, anaerobic bacteria; conditions: KYA8486
F. necrophorum S-45 = assay: MIC, anaerobic bacteria; assay type: cell-based; conditions: Fusobacterium necrophorum, S45, Gram -, 10^6 cells/ml
S. pneumoniae 3727 = assay: MIC, clinical isolates; assay type: cell-based; conditions: Streptococcus pneumoniae; clinical isolate S. pneumoniae 3727; 10^6 cells/ml
C. perfringens KYA 13123 = assay: microbe, parasite or virus in culture; assay type: cell-based; conditions: Clostridium perfringens, KYA13123
P. aeruginosa IID 1210 = assay: MIC, aerobic bacteria; assay type: cell-based; conditions: Pseudomonas aeruginosa, IID1210, Gram -, 10^6 cells/ml
S. pyogenes 4372 = assay: MIC, clinical isolates; assay type: cell-based; conditions: Streptococcus pyogenes; clinical isolate S. pyogenes 4372; 10^6 cells/ml
S. agalactiae 4049 = assay: MIC, clinical isolates; assay type: cell-based; conditions: Streptococcus agalactiae; clinical isolate S. agalactiae 4049; 10^6 cells/ml
E. faecalis 401 = assay: MIC, clinical isolates; assay type: cell-based; conditions: Enterococcus faecalis; clinical isolate E. faecalis 401; 10^6 cells/ml
S. pyogenes 3130 = assay: MIC, clinical isolates; assay type: cell-based; conditions: Streptococcus pyogenes; clinical isolate S. pyogenes 3130; 10^6 cells/ml
S. pneumoniae 2054 = assay: MIC, clinical isolates; assay type: cell-based; conditions: Streptococcus pneumoniae; clinical isolate S. pneumoniae 2054; 10^6 cells/ml
S. pneumoniae 2950 = assay: MIC, clinical isolates; assay type: cell-based; conditions: Streptococcus pneumoniae; clinical isolate S. pneumoniae 2950; 10^6 cells/ml
S. pyogenes 3107 = assay: MIC, clinical isolates; assay type: cell-based; conditions: Streptococcus pyogenes; clinical isolate S. pyogenes 3107; 10^6 cells/ml
[7] = system: S. aureus IID 670 (Terajima); assay: MIC, aerobic bacteria; assay type: cell-based; conditions: Staphylococcus aureus, IID670, Gram +, 10^6 cells/ml
Excerpt: (§1) | Organism (10^6 cells/ml)

P. mirabilis IID 992 = assay: MIC, aerobic bacteria; assay type: cell-based; conditions: Proteus mirabilis, IID992, Gram -, 10^6 cells/ml
Excerpt: as §1

[8] = system: Citrobacter freundii IID 976; assay: MIC, aerobic bacteria; assay type: cell-based; conditions: IID976, Gram -, 10^6 cells/ml
Excerpt: as §1

[9] = system: Proteus vulgaris IFO 3167; assay: MIC, aerobic bacteria; assay type: cell-based; conditions: IFO3167, Gram -, 10^6 cells/ml
Excerpt: as §1

[10] = system: Serratia marcescens IID 618; assay: MIC, aerobic bacteria; assay type: cell-based; conditions: IID618, Gram -, 10^6 cells/ml
Excerpt: as §1

[11] = system: Morganella morganii IID 602; assay: MIC, aerobic bacteria; assay type: cell-based; conditions: IID602, Gram -, 10^6 cells/ml
Excerpt: as §1

S. epidermidis IID 866 = assay: MIC, aerobic bacteria; assay type: cell-based; conditions: Staphylococcus epidermidis, IID866, Gram +, 10^6 cells/ml
Excerpt: as §1

[12] = system: Klebsiella pneumoniae KY(GN)6445; assay: MIC, aerobic bacteria; assay type: cell-based; conditions: Gram -, 10^6 cells/ml
Excerpt: as §1

E. coli ATCC 10536 = assay: MIC, aerobic bacteria; assay type: cell-based; conditions: Escherichia coli, ATCC10536, Gram -, 10^6 cells/ml
Excerpt: as §1

[13] = system: Escherichia coli NIHJ JC-2; assay: MIC, aerobic bacteria; assay type: cell-based; conditions: NIHJJC2, Gram -, 10^6 cells/ml
Excerpt: as §1

[14] = system: Acinetobacter anitratus IID 876; assay: MIC, aerobic bacteria; assay type: cell-based; conditions: Acinetobacter calcoaceticus, IID876, Gram -, 10^6 cells/ml
Excerpt: as §1

S. agalactiae 4468 = assay: MIC, clinical isolates; assay type: cell-based; conditions: Streptococcus agalactiae; clinical isolate S. agalactiae 4468; 10^6 cells/ml
P. maltophilia GIFU 2491 = assay: MIC, aerobic bacteria; assay type: cell-based; conditions: Stenotrophomonas maltophilia, GIFU2491, Gram -, 10^6 cells/ml
K. pneumoniae 1-220S = assay: microbe, parasite or virus in culture; conditions: Klebsiella pneumoniae, 1220S
[15] = system: Streptococcus pyogenes (S-8); assay: MIC, aerobic bacteria; assay type: cell-based; conditions: Gram +, 10^6 cells/ml
[16] = system: Yersinia enterocolitica IID 981; assay: microbe, parasite or virus in culture; conditions: IID981

SMILES: O=C(O)c1cn(C2CC2)c2c(F)c(N3CCC(CNCCF)C3)c(F)cc2c1=O (stereo not drawn) [Exp. 2, 1-Cyclopropyl-7-[3-(2-fluoroethyl)aminomethyl-1-pyrrolidinyl]-6,8-difluoro-1,4-dihydro-4-oxo-3-quinolinecarboxylic acid]
- MIC [1]: 0.1 µg/mL (≈ 0.244 µM)
- MIC (S. pneumoniae IID 552): 0.05 µg/mL (≈ 0.122 µM)
- MIC [2]: 0.0125 µg/mL (≈ 0.0305 µM)
- MIC [3]: 0.39 µg/mL (≈ 0.953 µM)
- MIC [4]: 0.78 µg/mL (≈ 1.91 µM)
- MIC (S. aureus Smith): 0.0125 µg/mL (≈ 0.0305 µM)
- MIC (P. aeruginosa IFO 12689): 1.56 µg/mL (≈ 3.81 µM)
- MIC [5]: ≤ 0.05 µg/mL
- MIC [6]: 0.78 µg/mL (≈ 1.91 µM)
- MIC (F. necrophorum S-45): 0.2 µg/mL (≈ 0.489 µM)
- MIC (S. pneumoniae 3727): 0.05 µg/mL (≈ 0.122 µM)
- MIC (C. perfringens KYA 13123): 0.1 µg/mL (≈ 0.244 µM)
- MIC (P. aeruginosa IID 1210): 1.56 µg/mL (≈ 3.81 µM)
- MIC (S. pyogenes 4372): 0.05 µg/mL (≈ 0.122 µM)
- MIC (S. agalactiae 4049): 0.05 µg/mL (≈ 0.122 µM)
- MIC (E. faecalis 401): 0.1 µg/mL (≈ 0.244 µM)
- MIC (S. pyogenes 3130): 0.05 µg/mL (≈ 0.122 µM)
- MIC (S. pneumoniae 2054): 0.05 µg/mL (≈ 0.122 µM)
- MIC (S. pneumoniae 2950): 0.05 µg/mL (≈ 0.122 µM)
- MIC (S. pyogenes 3107): 0.05 µg/mL (≈ 0.122 µM)
- MIC [7]: 0.025 µg/mL (≈ 0.0611 µM)
- MIC (P. mirabilis IID 992): 0.05 µg/mL (≈ 0.122 µM)
- MIC [8]: 0.05 µg/mL (≈ 0.122 µM)
- MIC [9]: 0.05 µg/mL (≈ 0.122 µM)
- MIC [10]: 0.2 µg/mL (≈ 0.489 µM)
- MIC [11]: 0.2 µg/mL (≈ 0.489 µM)
- MIC (S. epidermidis IID 866): 0.025 µg/mL (≈ 0.0611 µM)
- MIC [12]: 0.05 µg/mL (≈ 0.122 µM)
- MIC (E. coli ATCC 10536): 0.025 µg/mL (≈ 0.0611 µM)
- MIC [13]: 0.025 µg/mL (≈ 0.0611 µM)
- MIC [14]: 0.05 µg/mL (≈ 0.122 µM)
- MIC (S. agalactiae 4468): 0.05 µg/mL (≈ 0.122 µM)
- MIC (P. maltophilia GIFU 2491): 0.2 µg/mL (≈ 0.489 µM)
- MIC (K. pneumoniae 1-220S): 0.1 µg/mL (≈ 0.244 µM)
- MIC [15]: 0.05 µg/mL (≈ 0.122 µM)
- MIC [16]: 0.1 µg/mL (≈ 0.244 µM)

SMILES: O=C(O)c1cn(C2CC2)c2c(Cl)c(N3CCC(CNCCF)C3)c(F)cc2c1=O (stereo not drawn) [Exp. 1, 8-Chloro-1-cyclopropyl-6-fluoro-7-[3-(2-fluoroethyl)aminomethyl-1-pyrrolidinyl]-1,4-dihydro-4-oxo-3-quinolinecarboxylic acid]
- MIC [1]: 0.1 µg/mL (≈ 0.235 µM)
- MIC (S. pneumoniae IID 552): 0.025 µg/mL (≈ 0.0587 µM)
- MIC [2]: ≤ 0.0063 µg/mL
- MIC [3]: 0.1 µg/mL (≈ 0.235 µM)
- MIC [4]: 0.2 µg/mL (≈ 0.47 µM)
- MIC (S. aureus Smith): ≤ 0.0063 µg/mL
- MIC (P. aeruginosa IFO 12689): 1.56 µg/mL (≈ 3.66 µM)
- MIC [5]: ≤ 0.05 µg/mL
- MIC [6]: 0.39 µg/mL (≈ 0.916 µM)
- MIC (F. necrophorum S-45): 0.1 µg/mL (≈ 0.235 µM)
- MIC (S. pneumoniae 3727): 0.025 µg/mL (≈ 0.0587 µM)
- MIC (C. perfringens KYA 13123): ≤ 0.05 µg/mL
- MIC (P. aeruginosa IID 1210): 1.56 µg/mL (≈ 3.66 µM)
- MIC (S. pyogenes 4372): 0.025 µg/mL (≈ 0.0587 µM)
- MIC (S. agalactiae 4049): 0.025 µg/mL (≈ 0.0587 µM)
- MIC (E. faecalis 401): 0.05 µg/mL (≈ 0.117 µM)
- MIC (S. pyogenes 3130): 0.025 µg/mL (≈ 0.0587 µM)
- MIC (S. pneumoniae 2054): 0.025 µg/mL (≈ 0.0587 µM)
- MIC (S. pneumoniae 2950): 0.025 µg/mL (≈ 0.0587 µM)
- MIC (S. pyogenes 3107): 0.025 µg/mL (≈ 0.0587 µM)
- MIC [7]: ≤ 0.0063 µg/mL
- MIC (P. mirabilis IID 992): 0.025 µg/mL (≈ 0.0587 µM)
- MIC [8]: 0.05 µg/mL (≈ 0.117 µM)
- MIC [9]: 0.025 µg/mL (≈ 0.0587 µM)
- MIC [10]: 0.1 µg/mL (≈ 0.235 µM)
- MIC [11]: 0.1 µg/mL (≈ 0.235 µM)
- MIC (S. epidermidis IID 866): 0.0125 µg/mL (≈ 0.0294 µM)
- MIC [12]: 0.05 µg/mL (≈ 0.117 µM)
- MIC (E. coli ATCC 10536): 0.0125 µg/mL (≈ 0.0294 µM)
- MIC [13]: 0.0125 µg/mL (≈ 0.0294 µM)
- MIC [14]: 0.05 µg/mL (≈ 0.117 µM)
- MIC (S. agalactiae 4468): 0.025 µg/mL (≈ 0.0587 µM)
- MIC (P. maltophilia GIFU 2491): 0.2 µg/mL (≈ 0.47 µM)
- MIC (K. pneumoniae 1-220S): 0.1 µg/mL (≈ 0.235 µM)
- MIC [15]: 0.025 µg/mL (≈ 0.0587 µM)
- MIC [16]: 0.1 µg/mL (≈ 0.235 µM)
